# In the supplement of paper PMC11208160:
# Assay: recombinant UMI read abundance after kanamycin selection (control-corrected) (log10(CPM+1)); higher = more efficient recombination; extreme values may be limits of the assay; sequences stand for … in AGTGCAGAGAAAATCGGCCAGTTTTCTCTGCCTGCAGTCCGCATGCCGTGGGACCCCTTGGGTTCTAACCTGTTGCCTAGATTTATGCAGCGGACTGCCTTTCTCCCAAAGTGATAAACCGG…AGGTTGGTTTCACT; site = the 11-nt donor
# In short: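 Pooled Escherichia coli screen of donor and donor-binding-loop pairs for the IS621 bridge recombinase. Each pair sits with a 12-nt UMI on a plasmid carrying a promoterless kanamycin gene. The library was co-electroporated with a target plasmid encoding a fixed target and T7-inducible recombinase, then plated with IPTG (0.07 mM) plus kanamycin, or unselected, each in two replicates. Recombinant UMIs were PCR-amplified across the donor–target junction and sequenced. Counts became CPM, averaged over replicates, scaled by control-derived factors and reported as log10(CPM+1).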
row,Sequence,recombinant UMI read abundance (log10)
1,AGGAAGACATGGACCGGTTTTCCCGGTAATCCGTATTTGCA (site ATGAATACTTG),0
2,AGGAAGACATGGACCGGTTTTCCCGGTAATCCGTATTTGCA (site ATGACGACTTG),0
3,AGGAAGACATGGACCGGTTTTCCCGGTAATCCGTATTTGCA (site ATGCAGACTTG),0.701
4,AGGAAGACATGGACCGGTTTTCCCGGTAATCCGTATTTGCA (site CAGAAGACTTG),1.43
5,AGGAAGACATGGACCGGTTTTCCCGGTAATCCGTATTTGCA (site CGGAACACTTG),0.912
6,AGGAAGACATGGACCGGTTTTCCCGGTAATCCGTATTTGCA (site CGGAAGACTGG),0
7,AGGAAGACATGGACCGGTTTTCCCGGTAATCCGTATTTGCA (site CGGAAGACTTG),0.801
8,AGGAAGACATGGACCGGTTTTCCCGGTAATCCGTATTTGCA (site CGGAAGACTTT),0.95
9,AGGAAGACATGGACCGGTTTTCCCGGTAATCCGTATTTGCA (site CGGAAGCCTTG),0
10,AGGAAGACATGGACCGGTTTTCCCGGTAATCCGTATTTGCA (site CGGAGGACTTG),0.505
11,AGGAAGACATGGACCGGTTTTCCCGGTAATCCGTATTTGCA (site CGGTAGACTTG),1.27
12,AGGAAGACATGGACCGGTTTTCCCGGTAATCCGTATTTGCA (site CGTAAGACTTG),0.977
13,AGGAAGACATGGACCGGTTTTCCCGGTAATCCGTATTTGCA (site GGCAAGACTTG),2.22
14,AGGAAGACATGGACCGGTTTTCCCGGTAATCCGTATTTGCA (site GGGAAGACTAG),0
15,AGGAAGACATGGACCGGTTTTCCCGGTAATCCGTATTTGCA (site GGGAAGACTTC),0
16,AGGAAGACATGGACCGGTTTTCCCGGTAATCCGTATTTGCA (site GGGAAGACTTG),0.614
17,AGGAAGACATGGACCGGTTTTCCCGGTAATCCGTATTTGCA (site GGGAAGGCTTG),0
18,AGGAAGACATGGACCGGTTTTCCCGGTAATCCGTATTTGCA (site GGGAATACTTG),0
19,AGGAAGACATGGACCGGTTTTCCCGGTAATCCGTATTTGCA (site GGGACGACTTG),0.00563

row,Sequence,recombinant UMI read abundance (log10)
1,AGGAAGACATGGACCGGTTTTCCCGGTAATCCGTATTTGCA (site GGGCAGACTTG),0.837
2,AGGAAGACATGGACCGGTTTTCCCGGTAATCCGTATTTGCA (site GTGAAGACTTG),0
3,AGGAAGACATGGACCGGTTTTCCCGGTAATCCGTATTTGCA (site TCGAAGACTTG),1.81
4,AGGAAGACATGGACCGGTTTTCCCGGTAATCCGTATTTGCA (site TGAAAGACTTG),1.06
5,AGGAAGACATGGACCGGTTTTCCCGGTAATCCGTATTTGCA (site TGGAAAACTTG),0.756
6,AGGAAGACATGGACCGGTTTTCCCGGTAATCCGTATTTGCA (site TGGAAGACTCG),0.00521
7,AGGAAGACATGGACCGGTTTTCCCGGTAATCCGTATTTGCA (site TGGAAGACTTA),0.696
8,AGGAAGACATGGACCGGTTTTCCCGGTAATCCGTATTTGCA (site TGGAAGACTTG),1.16
9,AGGAAGACATGGACCGGTTTTCCCGGTAATCCGTATTTGCA (site TGGAAGTCTTG),0
10,AGGAAGACATGGACCGGTTTTCCCGGTAATCCGTATTTGCA (site TGGATGACTTG),0.00459
11,AGGAAGACATGGACCGGTTTTCCCGGTAATCCGTATTTGCA (site TGGGAGACTTG),0
12,AGGAAGACATGGACCGGTTTTCCCGGTAATCCGTATTTGTA (site AGGAAGACTTA),2.74
13,AGGAAGACATGGACCGGTTTTCCCGGTAATCCGTATTTGTA (site AGGAAGACTTC),0.521
14,AGGAAGACATGGACCGGTTTTCCCGGTAATCCGTATTTGTA (site AGGAAGACTTG),2.11
15,AGGAAGACATGGACCGGTTTTCCCGGTAATCCGTATTTGTA (site AGGAAGACTTT),1.8
16,AGGAAGGCATGGACCGGTTTTCCCGGTAATCCGTATTTGCA (site AGGAAGACTTG),1.98
17,AGGAAGGCATGGACCGGTTTTCCCGGTAATCCGTATTTGCA (site AGGAAGCCTTG),0
18,AGGAAGGCATGGACCGGTTTTCCCGGTAATCCGTATTTGCA (site AGGAAGGCTTG),2.41
19,AGGAAGGCATGGACCGGTTTTCCCGGTAATCCGTATTTGCA (site AGGAAGTCTTG),1.82
